Test results reported in the supplement of paper PMC4862054.

Tests used:
[1] = test system: BT-549; conditions: 72 h
Procedure, shortened: (§1)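 A 20 µl suspension of breast cancer cells was placed in 384-well plates that already contained compound at 5 concentrations in 10-fold steps across a compound-specific 10,000-fold range, and the plates were left for 72 h. CellTox Green fluorescence at 485/520 nm gave cell death, and CellTiter-Glo luminescence, read after 10 min at room temperature, gave viability. Each plate was normalised to 0.1 % DMSO and a positive kill control. EC50 was fitted from the curves and censored at the top concentration.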

[2] = test system: CAL-120; conditions: 72 h
Procedure, shortened: as §1

[3] = test system: CAL-148; conditions: 72 h
Procedure, shortened: as §1

[4] = test system: CAL-51; conditions: 72 h
Procedure, shortened: as §1

[5] = test system: CAL-85-1; conditions: 72 h
Procedure, shortened: as §1

[6] = test system: DU-4475; conditions: 72 h
Procedure, shortened: as §1

[7] = test system: HCC1143; conditions: 72 h
Procedure, shortened: as §1

[8] = test system: HCC1599; conditions: 72 h
Procedure, shortened: as §1

[9] = test system: HCC1937; conditions: 72 h
Procedure, shortened: as §1

[10] = test system: Hs578T; conditions: 72 h
Procedure, shortened: as §1

[11] = test system: MCF-10A; conditions: 72 h
Procedure, shortened: as §1

[12] = test system: MDA-MB-231; conditions: 72 h
Procedure, shortened: as §1

[13] = test system: MDA-MB-436; conditions: 72 h
Procedure, shortened: as §1

[14] = test system: MDA-MB-453; conditions: 72 h
Procedure, shortened: as §1

[15] = test system: MFM-223; conditions: 72 h
Procedure, shortened: as §1

[16] = test system: SK-BR-3; conditions: 72 h
Procedure, shortened: as §1

[17] = test system: CAL-148; conditions: 72 h; remark: listed apart in the source
Procedure, shortened: (§2)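 For viability, cells received 2.5 µl CellTiter-Blue for 2 h at 37 °C and fluorescence was read at 560/590 nm. Before this, breast cancer cell lines in 20 µl suspension had been incubated for 72 h on 384-well plates pre-loaded with compound dissolved in 5 µl medium. EC50 was obtained from a percent-inhibition dose-response fit censored at the highest concentration, after normalisation of each plate to vehicle and a positive kill control; rows with a zero drug sensitivity score were discarded.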

[18] = test system: CAL-51; conditions: 72 h; remark: listed apart in the source
Procedure, shortened: as §2

[19] = test system: CAL-85-1; conditions: 72 h; remark: listed apart in the source
Procedure, shortened: as §2

[20] = test system: DU-4475; conditions: 72 h; remark: listed apart in the source
Procedure, shortened: as §2

[21] = test system: HDQ-P1; conditions: 72 h
Procedure, shortened: as §2

[22] = test system: MDA-MB-453; conditions: 72 h; remark: listed apart in the source
Procedure, shortened: as §2

[23] = test system: BT-474; conditions: 72 h
Procedure, shortened: as §2

[24] = test system: BT-549; conditions: 72 h; remark: listed apart in the source
Procedure, shortened: as §2

[25] = test system: CAL-120; conditions: 72 h; remark: listed apart in the source
Procedure, shortened: as §2

[26] = test system: HCC1143; conditions: 72 h; remark: listed apart in the source
Procedure, shortened: as §2

[27] = test system: HCC1599; conditions: 72 h; remark: listed apart in the source
Procedure, shortened: as §2

[28] = test system: HCC1937; conditions: 72 h; remark: listed apart in the source
Procedure, shortened: as §2

[29] = test system: Hs578T; conditions: 72 h; remark: listed apart in the source
Procedure, shortened: as §2

[30] = test system: MDA-MB-231; conditions: 72 h; remark: listed apart in the source
Procedure, shortened: as §2

[31] = test system: MDA-MB-436; conditions: 72 h; remark: listed apart in the source
Procedure, shortened: as §2

[32] = test system: MDA-MB-468; conditions: 72 h
Procedure, shortened: as §2

[33] = test system: MFM-223; conditions: 72 h; remark: listed apart in the source
Procedure, shortened: as §2

[34] = test system: SK-BR-3; conditions: 72 h; remark: listed apart in the source
Procedure, shortened: as §2

[35] = test system: BT-549; conditions: 72 h; remark: listed apart in the source
Procedure: (§3)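 Drug sensitivity and resistance testing (DSRT) of breast cancer cell lines in 384-well plates, 5 concentrations in 10-fold dilutions over a compound-specific 10,000-fold range. After 72 h, cytotoxicity was read by CellTox Green fluorescence and viability by CellTiter-Glo luminescence (multiplexed), normalised to DMSO and benzethonium chloride controls. EC50 is the inflection point of the fitted dose-response curve (bottom asymptote free, so it can be relative for partial curves) and is censored at the highest tested concentration. Rows with DSS 0 (no meaningful response) were excluded.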

[36] = test system: CAL-51; conditions: 72 h; remark: listed apart in the source
Procedure: as §3

[37] = test system: CAL-85-1; conditions: 72 h; remark: listed apart in the source
Procedure: as §3

[38] = test system: HDQ-P1; conditions: 72 h; remark: listed apart in the source
Procedure: as §3

[39] = test system: Hs578T; conditions: 72 h; remark: listed apart in the source
Procedure: as §3

[40] = test system: MCF-10A; conditions: 72 h; remark: listed apart in the source
Procedure: as §3

[41] = test system: MDA-MB-231; conditions: 72 h; remark: listed apart in the source
Procedure: as §3

[42] = test system: MDA-MB-468; conditions: 72 h; remark: listed apart in the source
Procedure: as §3

[43] = test system: MFM-223; conditions: 72 h; remark: listed apart in the source
Procedure: as §3

[44] = test system: HCC1937; assay: drug sensitivity score (DSS), CellTox Green (DSS (AUC-based score)); higher = stronger drug effect (viability inhibition or cytotoxicity); extreme values may be limits of the assay; conditions: incubation time: 72 h
Procedure, shortened: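 Breast cancer cell lines (20 µl suspension) were seeded into 384-well plates holding compound at 5 concentrations in 10-fold steps over a compound-specific 10,000-fold range, then incubated 72 h. CellTox Green fluorescence (485/520 nm) was read first, then CellTiter-Glo luminescence after 10 min at room temperature. Each plate was normalised to 0.1 % DMSO and a positive kill control. The drug sensitivity score was calculated from the area under the fitted dose-response curve.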

## CC(C)(C)c1cnc(CSc2cnc(NC(=O)C3CCNCC3)s2)o1 [SNS-032]
[1]
  EC50, CellTiter-Glo: 41.9 nM
[2]
  EC50, CellTiter-Glo: 102 nM
[3]
  EC50, CellTiter-Glo: 33.2 nM
[4]
  EC50, CellTiter-Glo: 17.1 nM
[5]
  EC50, CellTiter-Glo: 62.8 nM
[6]
  EC50, CellTiter-Glo: 203 nM
[7]
  EC50, CellTiter-Glo: 46.5 nM
[8]
  EC50, CellTiter-Glo: 233 nM
[9]
  EC50, CellTiter-Glo: 87.8 nM
[10]
  EC50, CellTiter-Glo: 101 nM
[11]
  EC50, CellTiter-Glo: 157 nM
[12]
  EC50, CellTiter-Glo: 54.1 nM
[13]
  EC50, CellTiter-Glo: 46.8 nM
[14]
  EC50, CellTiter-Glo: 41.1 nM
[15]
  EC50, CellTiter-Glo: 137 nM
[16]
  EC50, CellTiter-Glo: 61.4 nM
[17]
  EC50, CellTiter-Blue viability: 128 nM
[18]
  EC50, CellTiter-Blue viability: 571 nM
[19]
  EC50, CellTiter-Blue viability: 128 nM
[20]
  EC50, CellTiter-Blue viability: 203 nM
[21]
  EC50, CellTiter-Blue viability: 110 nM
[22]
  EC50, CellTiter-Blue viability: 125 nM
[23]
  EC50, CellTiter-Blue viability: 168 nM
[24]
  EC50, CellTiter-Blue viability: 249 nM
[25]
  EC50, CellTiter-Blue viability: 160 nM
[26]
  EC50, CellTiter-Blue viability: 206 nM
[27]
  EC50, CellTiter-Blue viability: 150 nM
[28]
  EC50, CellTiter-Blue viability: 79.7 nM
[29]
  EC50, CellTiter-Blue viability: 101 nM
[30]
  EC50, CellTiter-Blue viability: 133 nM
[31]
  EC50, CellTiter-Blue viability: 376 nM
[32]
  EC50, CellTiter-Blue viability: 353 nM
[33]
  EC50, CellTiter-Blue viability: 169 nM
[34]
  EC50, CellTiter-Blue viability: 123 nM
[35]
  EC50, CellTox Green: 255 nM
[36]
  EC50, CellTox Green: 11.1 nM
[37]
  EC50, CellTox Green: 41.2 nM
[38]
  EC50, CellTox Green: 32.2 nM
[39]
  EC50, CellTox Green: 85.8 nM
[40]
  EC50, CellTox Green: 172 nM
[41]
  EC50, CellTox Green: 30.9 nM
[42]
  EC50, CellTox Green: 7580 nM
[43]
  EC50, CellTox Green: 142 nM
[44]
  drug sensitivity score: 0

## CC(=O)c1c(C)c2cnc(Nc3ccc(N4CCNCC4)cn3)nc2n(C2CCCC2)c1=O
[18]
  EC50, CellTiter-Blue viability: 1170 nM
[22]
  EC50, CellTiter-Blue viability: 102 nM
[25]
  EC50, CellTiter-Blue viability: 12.8 nM
[26]
  EC50, CellTiter-Blue viability: 9920 nM
[29]
  EC50, CellTiter-Blue viability: 7700 nM
[30]
  EC50, CellTiter-Blue viability: 460 nM
